Values quoted from earlier work, collected in US9248110B2, “Compositions and methods of treating and preventing lung cancer and lymphangioleiomyomatosis” (priority 2010, dated 2016).
Like-named read-outs stand apart in the source and are kept apart here.

System: Lewis lung LLC1 cells
Conditions: orally administered

SMILES: CN(C)C(=N)N=C(N)N [metformin]
- tumor growth (mice fed a high-energy diet): reduce tumor growth
- tumor growth (mice on a control diet): no effect on tumor growth
